Assay results: patent US20200237871A1, “METHODS FOR MITIGATING LIVER INJURY AND PROMOTING LIVER HYPERTROPHY, REGENERATION AND CELL ENGRAFTMENT IN CONJUNCTION WITH RADIATION AND/OR RADIOMIMETIC TREATMENTS” (Janssen Pharmaceutica NV, priority 2019, published 2020)
“Also recorded” adds a separate entry of the source.

Key:
C57BL6 male mice = assay: Volume of untreated (non-irradiated) caudate lobe after partial hepatic irradiation (Example 1); format: in vivo, mouse; settings: 50 Gy to median lobe; 300 μg/kg sc 10 minutes after irradiation; one month after HIR; n=4 per group; p-value <0.00932
Procedure: 8-12-week-old C57BL6 male mice were housed in the Institute for Animal Studies at Albert Einstein College of Medicine and fed regular chow. Animals were weighed in the beginning of the experiment and before tissue collection. All experiments were performed to according to protocols approved by Institutional Animal Care and Use Committee at Albert Einstein College of Medicine.
Image-guided external beam irradiation was performed using a small animal radiation research platform (SARRP, Xstrahl Inc., Suwanee, Ga.). Mice were given gastrografin contrast through gavage to improve visualization of the gastrointestinal (GI) tract. After approximately 2 minutes, mice were positioned on a tubular couch and anesthetized with ˜2% Isofluorane (Isothesia, USP) in 2 L/min pure oxygen. A cone-beam computed tomography (CBCT) scan was acquired and a treatment plan irradiating the median lobe and right lobe was generated using the MuriPlan software. To minimize toxicity, irradiation was performed using 2 parallel opposed fields. […]
With fixed physiologic organ size, non-irradiated liver undergoes hypertrophy in effort to compensate for the irradiated atrophic lobe. The volume of the caudate lobe was measured as a non-irradiated lobe in this experiment.

cirrhotic mice = assay: Extent of radiation induced liver disease (RILD) by SPECT-CT in cirrhotic mice (Example 5); format: in vivo, mouse; settings: 50 Gy HIR, RWJ-800088 with LSEC transplants
Procedure: Male C57BL/6 DPPIV knockout male mice (10-14 weeks) were injected intraperitoneally with carbon tetrachloride (CCl4) twice a week for a minimum of 12 weeks until a maximum of when 5 out of 30 mice perish from the CCl4 injection. Immediately after, the animals were randomly distributed into the experimental groups.
Image-guided external beam irradiation was performed using a small animal radiation research platform (SARRP, Xstrahl Inc., Suwanee, Ga.). Mice were given gastrografin contrast through gavage to improve visualization of the gastrointestinal (GI) tract. […]
The methods were identical to Experiment 4 as described above with the exception that the CCl4 dose was increased to 20% in olive oil over 12 weeks. To evaluate the effect of RWJ-800088+Liver Sinusoidal Endothelial Cells (LSEC), RWJ-800088+Plerixafor (a selective inhibitor of CXCR4 administered pre- and post-irradiation) on radiation induced liver disease as measured by SPECT-CT in cirrhotic mice after single hepatic irradiation (HIR) at 50 Gy. […]
The dosing solution of RWJ-800088 was prepared as described in Experiment 4. […] The number of viral particles and infectious units' ratio was determined by infecting 293 cells at various dilutions, followed by immunocytochemical staining for adenoviral hexons. The infectious titer was calculated from the number of plaques formed per 1,000 viral particles. […]

methoxypolyethyleneglycol20000-propionyl-L-Isoleucyl-L-Glutamyl-Glycyl-L-Prolyl-L-Threonyl-L-Leucyl-L-Arginyl-L-Glutaminyl-L-2-Naphthylalanyl-L-Leucyl-L-Alanyl-L-Alanyl-L-Arginyl-Sarcosyl-Ne-(methoxypolyethyleneglycol20000-propionyl-L-Isoleucyl-L-Glutamyl-Glycyl-L-Prolyl-L-Threonyl-L-Leucyl-L-Arginyl-L-Glutaminyl-L-2-Naphthyl alanyl-L-Leucyl-L-Alanyl-L-Alanyl-L-Arginyl-Sarcosyl-)-Lysinamide [RWJ-800088]
non-irradiated caudate lobe size, HIR+TPOm vs. HIR+saline (C57BL6 male mice): significant increase | protection against RILD (SPECT-CT) (cirrhotic mice): trend toward protection against RILD; also recorded: protected against RILD
